From patent US9561228B2 (Celgene Avilomics Research, Inc., priority 2013, dated 2017) come the findings set out here.

The term GI50 denotes the concentration at which growth is held to half of that of the control. Lower therefore signals greater sensitivity of the cells.

What all share (format): cell-based
In test [1] the test system is HT-29 cells (colorectal adenocarcinoma). Nature of the test: Inhibition of cancer cell proliferation, HT-29 (CellTiterGlo, 72 hours). The conditions noted are these: Homo sapiens. Put shortly: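 HT-29 cells seeded at 3000/well, then treated with 3-fold serial dilutions from a 5,000 nM two-fold solution in serum-free RPMI1640, untreated wells as control, for 72 h at 37° C. CellTiterGlo luminescence converted to cell number via a standard curve; GI50 from percent inhibition versus untreated growth.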
A general note: Cellular ATP, detected with luciferase, serves as a proxy for viable cell number.

The test system of test [2] is A375 cells (malignant melanoma). As to the kind of experiment: Inhibition of cancer cell proliferation, A375 (CellTiterGlo, 72 hours). The conditions noted are these: Homo sapiens, A-375. The essentials:
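A375 melanoma cells, 3000/well, exposed 72 h at 37 °C to compound in 3-fold serial dilutions (solution added as 2× stock starting at 5,000 nM in serum-free DMEM). CellTiterGlo luminescence converted to cell number via standard curve; % inhibition vs untreated control, GI50 from curve fit.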

The test system of test [3] is ERK1/2 phosphorylation of p90RSK in HCT116 cells. As to the kind of experiment: Detection of total and phospho-RSK by MSD ELISA (HCT116). The conditions noted are these: Homo sapiens, HCT-116, read-out: ERK1/ERK2 PRSK HCT116 EC50. The essentials:
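HCT116 cells treated with compound in RPMI/10% FBS for 2 h at 37° C, then lysed. Phospho-RSK (Ser380) and total RSK in lysates measured by MSD sandwich electrochemiluminescence ELISA as a readout of ERK1/2 activity.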

Structures are written as SMILES.

Consider `C=CC(=O)Nc1ccccc1Nc1nc(Nc2cc(OC)nc(N3CCCCC3)c2)ncc1C(F)(F)F` [Compound I-282, N-(2-((2-((2-Methoxy-6-(piperidin-1-yl)pyridin-4-yl)amino)-5-(trifluoromethyl)pyrimidin-4-yl)amino)phenyl)acrylamide], for which the GI50 in test [1] and in test [2] was below 100 nM throughout. In addition, in test [3], the EC50 was below 100 nM.
For the compound `C=CC(=O)Nc1ccccc1Nc1nc(Nc2cc(OC)nc(OCCOC)c2)ncc1C(F)(F)F` [Compound I-283, N-(2-((2-((2-Methoxy-6-(2-methoxyethoxyl)pyridin-4-yl)amino)-5-(trifluoromethyl)pyrimidin-4-yl)amino)phenyl)acrylamide], the GI50 in test [1] and in test [2] was below 100 nM each time. The EC50 in test [3] is below 100 nM.
As for `C=CC(=O)Nc1cc(OC)ccc1Nc1nc(Nc2cc(OC)ncc2C)ncc1C(F)(F)F` [Compound I-284, N-(5-Methoxy-2-((2-((2-methoxy-5-methylpyridin-4-yl)amino)-5-(trifluoromethyl)pyrimidin-4-yl)amino)phenyl)acrylamide], the GI50 in test [1] was 501 to 999 nM; in test [2], below 100 nM. Also, in test [3], the EC50 is below 100 nM.
With `C=CC(=O)Nc1ccccc1Nc1nc(Nc2cc(NCCOC)nc(OC)c2)ncc1C(F)(F)F` [Compound I-286, N-(2-((2-((2-Methoxy-6-((2-methoxyethyl)amino)pyridin-4-yl)amino)-5-(trifluoromethyl)pyrimidin-4-yl)amino)phenyl)acrylamide], the GI50 in test [1] and in test [2] was below 100 nM each time. In addition, the EC50 in test [3] was below 100 nM.
Take `C=CC(=O)Nc1ccccc1Nc1nc(Nc2cc(OC)nc(N3CCS(=O)(=O)CC3)c2)ncc1C(F)(F)F` [Compound I-291, N-(2-((2-((2-(1,1-Dioxidothiomorpholino)-6-methoxypyridin-4-yl)amino)-5-(trifluoromethyl)pyrimidin-4-yl)amino)phenyl)acrylamide]: the GI50 in test [1] and in test [2] was below 100 nM in each case. Also, the EC50 in test [3] was below 100 nM.
With `C=CC(=O)Nc1ccccc1Nc1nc(Nc2ccnnc2)ncc1C(F)(F)F` [Compound I-293, N-(2-((2-(Pyridazin-4-ylamino)-5-(trifluoromethyl)pyrimidin-4-yl)amino)phenyl)acrylamide], the GI50 in test [1] and in test [2] was below 100 nM throughout. Further, the EC50 in test [3] is below 100 nM.
On to `C=CC(=O)Nc1cc(C)ccc1Nc1nc(Nc2cc(OC)nc(N3CCN(C(C)=O)CC3)c2)ncc1Cl` [Compound I-296, N-(2-((2-((2-(4-acetylpiperazin-1-yl)-6-methoxypyridin-4-yl)amino)-5-chloropyrimidin-4-yl)amino)-5-methylphenyl)acrylamide], for which the GI50 in test [1] and in test [2] was below 100 nM each time. For the same compound, the EC50 in test [3] is below 100 nM.
As to `C=CC(=O)Nc1cc(F)ccc1Nc1nc(Nc2cc(OC)ncc2C)ncc1C(F)(F)F` [Compound I-322, N-(5-fluoro-2-((2-((2-methoxy-5-methylpyridin-4-yl)amino)-5-(trifluoromethyl)pyrimidin-4-yl)amino)phenyl)acrylamide], the GI50 in test [1] was 101 to 500 nM; in test [2] it was below 100 nM. Moreover, the EC50 in test [3] lay in the range of 101 to 500 nM.
Turning to `C=CC(=O)Nc1cc(C(F)(F)F)ccc1Nc1nc(Nc2cc(OC)ncc2C)ncc1C(F)(F)F` [Compound I-323, N-(2-((2-((2-methoxy-5-methylpyridin-4-yl)amino)-5-(trifluoromethyl)pyrimidin-4-yl)amino)-5-(trifluoromethyl)phenyl)acrylamide], the GI50 in test [1] and in test [2] was 101 to 500 nM each time. Also, the EC50 in test [3] lay in the range of 101 to 500 nM.
As for `C=CC(=O)Nc1ccccc1Nc1nc(Nc2cc(OC)nc(N3CCN(C)CC3)c2)ncc1C(F)(F)F` [Compound I-324, N-(2-((2-((2-methoxy-6-(4-methylpiperazin-1-yl)pyridin-4-yl)amino)-5-(trifluoromethyl)pyrimidin-4-yl)amino)phenyl)acrylamide], the GI50 in test [1] and in test [2] was below 100 nM throughout. The EC50 in test [3] was below 100 nM.
For `C=CC(=O)Nc1cc(C)ccc1Nc1nc(Nc2cc(OC)nc(N3CCN(C)CC3)c2)ncc1C(F)(F)F` [Compound I-325, N-(2-((2-((2-methoxy-6-(4-methylpiperazin-1-yl)pyridin-4-yl)amino)-5-(trifluoromethyl)pyrimidin-4-yl)amino)-5-methylphenyl)acrylamide], the GI50 in test [1] and in test [2] was below 100 nM in each case. Further, the EC50 in test [3] was below 100 nM.
As for `C=CC(=O)Nc1cc(C)ccc1Nc1nc(Nc2cc(OC)nc(N3CC(O)C3)c2)ncc1C(F)(F)F` [Compound I-328, N-(2-((2-((2-(3-hydroxyazetidin-1-yl)-6-methoxypyridin-4-yl)amino)-5-(trifluoromethyl)pyrimidin-4-yl)amino)-5-methylphenyl)acrylamide], the GI50 in test [1] and in test [2] was below 100 nM throughout. In addition, the EC50 in test [3] was below 100 nM.
Regarding `C=CS(=O)(=O)Nc1cc(C)ccc1Nc1nc(Nc2cc(OC)ncc2C)ncc1C(F)(F)F` [Compound I-333, N-(2-((2-((2-methoxy-5-methylpyridin-4-yl)amino)-5-(trifluoromethyl)pyrimidin-4-yl)amino)-5-methylphenyl)ethenesulfonamide], the GI50 in test [1] and in test [2] was above 1000 nM in each case. Further, the EC50 in test [3] is above 1000 nM.
As to `C=CC(=O)Nc1cc(OC)ccc1Nc1nc(Nc2cc(OC)nc(N3CCN(C)CC3)c2)ncc1C(F)(F)F` [Compound I-334, N-(5-methoxy-2-((2-((2-methoxy-6-(4-methylpiperazin-1-yl)pyridin-4-yl)amino)-5-(trifluoromethyl)pyrimidin-4-yl)amino)phenyl)acrylamide], the GI50 in test [1] and in test [2] was below 100 nM each time. For the same compound, in test [3], the EC50 is below 100 nM.
With `C=CC(=O)Nc1cc(C)ccc1Nc1nc(Nc2cc(OC)nc(N(C)CCOC)c2)ncc1C(F)(F)F` [Compound I-336, N-(2-((2-((2-methoxy-6-((2-methoxyethyl)(methyl)amino)pyridin-4-yl)amino)-5-(trifluoromethyl)pyrimidin-4-yl)amino)-5-methylphenyl)acrylamide], the GI50 in test [1] and in test [2] was below 100 nM in each case. Also, in test [3], the EC50 is 101 to 500 nM.
With `C=CC(=O)Nc1cc(C)ccc1Nc1nc(Nc2cc(NC3CC3)nc(OC)c2)ncc1C(F)(F)F` [Compound I-337, N-(2-((2-((2-(cyclopropylamino)-6-methoxypyridin-4-yl)amino)-5-(trifluoromethyl)pyrimidin-4-yl)amino)-5-methylphenyl)acrylamide], the GI50 in test [1] and in test [2] was below 100 nM in each case. Besides, the EC50 in test [3] was below 100 nM.
On to `C=CC(=O)Nc1ccccc1Nc1nc(Nc2cc(OC)cc(OC)c2)ncc1C(F)(F)F` [Compound I-338, N-(2-((2-((3,5-dimethoxyphenyl)amino)-5-(trifluoromethyl)pyrimidin-4-yl)amino)phenyl)acrylamide], for which the GI50 in test [1] and in test [2] was below 100 nM each time. The EC50 in test [3] was below 100 nM.
In the case of `C=CC(=O)Nc1cc(C)ccc1Nc1nc(Nc2cc(OC)cc(OC)c2)ncc1C(F)(F)F` [Compound I-339, N-(2-((2-((3,5-dimethoxyphenyl)amino)-5-(trifluoromethyl)pyrimidin-4-yl)amino)-5-methylphenyl)acrylamide], the GI50 in test [1] and in test [2] was below 100 nM in each case. For the same compound, the EC50 in test [3] lay in the range of 101 to 500 nM.
Turning to `C=CC(=O)Nc1ccccc1Nc1nc(Nc2cc(OC)ccc2C)ncc1C(F)(F)F` [Compound I-340, N-(2-((2-((5-methoxy-2-methylphenyl)amino)-5-(trifluoromethyl)pyrimidin-4-yl)amino)phenyl)acrylamide], the GI50 in test [1] and in test [2] was 101 to 500 nM in each case. Also, in test [3], the EC50 was 101 to 500 nM.
With `C=CC(=O)Nc1cc(C)ccc1Nc1nc(Nc2cc(OC)nc(N(C)C3CC3)c2)ncc1C(F)(F)F` [Compound I-342, N-(2-((2-((2-(cyclopropyl(methyl)amino)-6-methoxypyridin-4-yl)amino)-5-(trifluoromethyl)pyrimidin-4-yl)amino)-5-methylphenyl)acrylamide], the GI50 in test [1] is below 100 nM; in test [2], 101 to 500 nM. Also, the EC50 in test [3] was in the range of 101 to 500 nM.
